Data set [1] relates to Staphylococcus aureus. Description: Antibacterial activity against methicillin-resistant Staphylococcus aureus USA300 infected in BALB/c mouse assessed as reduction in bacterial count administered 72 hrs post infection topically twice daily for 4 days. In kind it is functional, organism-based. As to conditions: time 4.0 day.
Data set [2] relates to Caco-2. Description: Cytotoxicity against human Caco-2 cells assessed as reduction in cell viability at 64 ug/ml incubated for 24 hrs by MTS assay. It is filed as toxicity, cell-based. The settings on record: caco-2, 24 h, dose 64 µg/ml. In general terms: Tetrazolium dyes change colour on reduction, which living cells bring about.
A short description of data set [3]: Cytotoxicity against human HaCaT cells assessed as cell viability at 64 ug/ml incubated for 24 hrs by MTS assay relative to control. It is filed as toxicity, cell-based. The settings on record: at 64 µg/mL, read-out: Activity.
Data set [4] relates to Staphylococcus aureus. In words: Potentiation of vancomycin-induced antibacterial activity against vancomycin-resistant Staphylococcus aureus 1 assessed as vancomycin MIC at 0.5 times MIC incubated for 18 to 20 hrs by broth microdilution method. It is filed as functional. As to conditions: time 18-20 hrs. A general note: Dilution methods test growth across graded concentrations, often in twofold steps.

The test system of data set [5] is Staphylococcus aureus. Description: Potentiation of vancomycin-induced antibacterial activity against vancomycin-resistant Staphylococcus aureus 3b assessed as vancomycin MIC at 0.5 times MIC incubated for 18 to 20 hrs by broth microdilution method. It is filed as functional. The settings on record: time 18-20 hrs.
Data set [6] has as its system Staphylococcus aureus. In words: Antibacterial activity against methicillin-resistant Staphylococcus aureus USA400 NRS 123 assessed as time of post-antibiotic effect at 5 times MIC incubated for 2 hrs followed by compound washout and measured every single 1 hr. In kind it is functional.
Data set [7] concerns Staphylococcus aureus. Description: Antibacterial activity against methicillin-sensitive Staphylococcus aureus ATCC 6538 incubated for 18 to 20 hrs by broth microdilution method. It is filed as functional. The settings on record: time 18-20 hrs.
In data set [8] the test system is Staphylococcus aureus. Description: Potentiation of vancomycin-induced antibacterial activity against vancomycin-resistant Staphylococcus aureus 10 assessed as vancomycin MIC at 0.5 times MIC incubated for 18 to 20 hrs by broth microdilution method. It is filed as functional. As to conditions: time 18-20 hrs.
For data set [9], the system named is Staphylococcus aureus. In words: Antibacterial activity against Vancomycin-resistant Staphylococcus aureus 9 incubated for 18 to 20 hrs by broth microdilution method. In kind it is functional. The settings on record: time 18-20 hrs.
Data set [10] has as its system Staphylococcus aureus. Description: Antibacterial activity against methicillin-resistant Staphylococcus aureus USA300 infected in BALB/c mouse assessed as recovery of body weight loss administered 72 hrs post infection topically twice daily for 4 days. In kind it is functional, organism-based. As to conditions: time 4.0 day.
The test system of data set [11] is Staphylococcus aureus. In words: Antibacterial activity against methicillin-resistant Staphylococcus aureus NRS 386 (USA700) incubated for 18 to 20 hrs by broth microdilution method. In kind it is functional. As to conditions: time 18-20 hrs.
In data set [12] the test system is Staphylococcus aureus. In words: Potentiation of vancomycin-induced antibacterial activity against vancomycin-resistant Staphylococcus aureus 13 assessed as vancomycin MIC at 0.5 times MIC incubated for 18 to 20 hrs by broth microdilution method. In kind it is functional. The settings on record: time 18-20 hrs.
In data set [13] the test system is Staphylococcus aureus. Description: Antibacterial activity against Vancomycin-resistant Staphylococcus aureus 10 incubated for 18 to 20 hrs by broth microdilution method. In kind it is functional. As to conditions: time 18-20 hrs.
Data set [14] concerns Staphylococcus aureus. In words: Potentiation of vancomycin-induced antibacterial activity against vancomycin-resistant Staphylococcus aureus 9 assessed as vancomycin MIC at 0.5 times MIC incubated for 18 to 20 hrs by broth microdilution method. In kind it is functional. The settings on record: time 18-20 hrs.
Data set [15] has as its system Staphylococcus aureus. Description: Antibacterial activity against methicillin-resistant Staphylococcus aureus USA300 infected in BALB/c mouse assessed as reduction in bacterial count in spleen administered 72 hrs post infection topically twice daily for 4 days. In kind it is functional, organism-based. The settings on record: time 4.0 day.
Data set [16] is described as follows: Hemolytic activity in rabbit erythrocytes at 64 ug/ml incubated for 30 min by absorbance based analysis relative to control. As to conditions: at 64 µg/mL, read-out: Activity. In kind it is toxicity, cell-based, Oryctolagus cuniculus, Erythrocyte.
Data set [17] has as its system Caco-2. Description: Cytotoxicity against human Caco-2 cells at 128 ug/ml incubated for 24 hrs by MTS assay. It is filed as toxicity, cell-based. As to conditions: caco-2, 24 h, dose 128 µg/ml.
A short description of data set [18]: Hemolytic activity in rabbit erythrocytes at 32 ug/ml incubated for 30 min by absorbance based analysis relative to control. It is filed as toxicity, cell-based, Oryctolagus cuniculus, Erythrocyte. As to conditions: at 32 µg/mL, read-out: Activity.
Data set [19] deals with Staphylococcus aureus. In words: Antibacterial activity against methicillin-resistant Staphylococcus aureus NRS 385 (USA500) incubated for 18 to 20 hrs by broth microdilution method. In kind it is functional. The settings on record: time 18-20 hrs.
Data set [20] relates to Staphylococcus aureus. Description: Potentiation of vancomycin-induced antibacterial activity against vancomycin-resistant Staphylococcus aureus 2 assessed as vancomycin MIC at 0.5 times MIC incubated for 18 to 20 hrs by broth microdilution method. In kind it is functional. As to conditions: time 18-20 hrs.
Data set [21] relates to Staphylococcus epidermidis. In words: Antibacterial activity against Staphylococcus epidermidis NRS 101 incubated for 18 to 20 hrs by broth microdilution method. In kind it is functional. As to conditions: time 18-20 hrs.
Data set [22] relates to Staphylococcus aureus. Description: Antibacterial activity against Vancomycin-resistant Staphylococcus aureus 12 incubated for 18 to 20 hrs by broth microdilution method. In kind it is functional. As to conditions: time 18-20 hrs.
The test system of data set [23] is Staphylococcus aureus. Description: Potentiation of vancomycin-induced antibacterial activity against vancomycin-resistant Staphylococcus aureus 3 assessed as vancomycin MIC at 0.5 times MIC incubated for 18 to 20 hrs by broth microdilution method. In kind it is functional. As to conditions: time 18-20 hrs.
For data set [24], the system named is Staphylococcus aureus. In words: Antibacterial activity against methicillin-resistant Staphylococcus aureus NRS 384 (USA300) incubated for 18 to 20 hrs by broth microdilution method. In kind it is functional. As to conditions: time 18-20 hrs.
Data set [25] concerns Staphylococcus aureus. In words: Potentiation of vancomycin-induced antibacterial activity against vancomycin-resistant Staphylococcus aureus 12 assessed as vancomycin MIC at 0.5 times MIC incubated for 18 to 20 hrs by broth microdilution method. In kind it is functional. As to conditions: time 18-20 hrs.
Data set [26] deals with Staphylococcus aureus. In words: Antibacterial activity against methicillin-resistant Staphylococcus aureus NRS 119 incubated for 18 to 20 hrs by broth microdilution method. In kind it is functional. The settings on record: time 18-20 hrs.
In data set [27] the test system is Staphylococcus aureus. In words: Antibacterial activity against methicillin-sensitive Staphylococcus aureus NRS 107 incubated for 18 to 20 hrs by broth microdilution method. It is filed as functional. The settings on record: time 18-20 hrs.
Another data set deals with Erythrocyte. Description: Hemolytic activity in rabbit erythrocytes at 128 ug/ml incubated for 30 min by absorbance based analysis. It is filed as toxicity, cell-based, Oryctolagus cuniculus. As to conditions: 0.5 h, dose 128 µg/ml.
Data set [28] deals with Staphylococcus aureus. In words: Antibacterial activity against methicillin-resistant Staphylococcus aureus NRS 123 (USA400) incubated for 18 to 20 hrs by broth microdilution method. It is filed as functional. As to conditions: time 18-20 hrs.
In data set [29] the test system is Staphylococcus aureus. Description: microbe, parasite or virus in culture. As to conditions: 2.
The subject of data set [30] is Staphylococcus aureus. In words: microbe, parasite or virus in culture. The settings on record: 3a.
For data set [31], the system named is Staphylococcus aureus. Description: microbe, parasite or virus in culture. The settings on record: 1.
In data set [32] the test system is Staphylococcus aureus. Description: microbe, parasite or virus in culture. As to conditions: 3b.
The test system of data set [33] is Staphylococcus aureus. In words: microbe, parasite or virus in culture. The settings on record: 13.

The source of these data is ChEMBL document CHEMBL5154795, “Exploring the structure-activity relationships of diphenylurea as an antibacterial scaffold active against methicillin- and vancomycin-resistant Staphylococcus aureus” (Eur J Med Chem, 2022).

Converted amounts (≈) assume the structure as drawn. The source made the active and inactive calls. The calls are words filed in the database; no cut-off is given here.

Consider `C/C(=N\NC(=N)N)c1ccc(NC(=O)Nc2ccc(/C=C/CC(C)C)cc2)cc1`, for which the result with Staphylococcus aureus [1], in the data set with Staphylococcus aureus [10] and in the data set on Staphylococcus aureus [15] was Active. Also, the Activity entry is recorded as “Non-Toxic” in the data set with Caco-2 [2], “Toxic” with Caco-2 [17] and “Toxic” in the data set on Erythrocyte. In addition, the viability at 24 h, 64 ug/ml in [3] is 100%. The MIC with Staphylococcus aureus [4] came out at 4 µg/mL; with Staphylococcus aureus [5], 8 µg/mL; with Staphylococcus aureus [7], 4 µg/mL (≈ 10.2 µM); with Staphylococcus aureus [8], 16 µg/mL; in the data set on Staphylococcus aureus [9], 4 µg/mL (≈ 10.2 µM); in the data set on Staphylococcus aureus [11], 4 µg/mL (≈ 10.2 µM). The MIC with Staphylococcus aureus [12] turned out to be 16 µg/mL; with Staphylococcus aureus [13], 8 µg/mL (≈ 20.4 µM); in the data set on Staphylococcus aureus [14], 16 µg/mL; against Staphylococcus aureus [19], 4 µg/mL (≈ 10.2 µM); with Staphylococcus aureus [20], 4 µg/mL; in data set [21], 4 µg/mL (≈ 10.2 µM). The MIC against Staphylococcus aureus [22] turned out to be 8 µg/mL (≈ 20.4 µM); in the data set with Staphylococcus aureus [23], 2 µg/mL; in the data set on Staphylococcus aureus [24], 2 µg/mL (≈ 5.1 µM); in the data set on Staphylococcus aureus [25] it was 64 µg/mL; with Staphylococcus aureus [26] it was 4 µg/mL (≈ 10.2 µM); with Staphylococcus aureus [27] it was 4 µg/mL (≈ 10.2 µM). Moreover, the MIC in the data set on Staphylococcus aureus [28] turned out to be 4 µg/mL (≈ 10.2 µM). For the same compound, the Time in the data set on Staphylococcus aureus [6] stood at 5 h. Also, the hemolysis at 0.5 h, 64 ug/ml in data set [16] was found to be 50%. In addition, the hemolysis at 0.5 h, 32 ug/ml in data set [18] is below 10%.
`CN[C@H](CC(C)C)C(=O)N[C@H]1C(=O)N[C@@H](CC(N)=O)C(=O)N[C@H]2C(=O)N[C@H]3C(=O)N[C@H](C(=O)N[C@H](C(=O)O)c4cc(O)cc(O)c4-c4cc3ccc4O)[C@H](O)c3ccc(c(Cl)c3)Oc3cc2cc(c3O[C@@H]2O[C@H](CO)[C@@H](O)[C@H](O)[C@H]2O[C@H]2C[C@](C)(N)[C@H](O)[C@H](C)O2)Oc2ccc(cc2Cl)[C@H]1O` [VANCOMYCIN]: in the data set with Staphylococcus aureus [6], the Time was determined as 3 h. Moreover, the MIC in the data set with Staphylococcus aureus [9] is above 64 µg/mL; against Staphylococcus aureus [29] it was 64 µg/mL (≈ 44.2 µM); in the data set on Staphylococcus aureus [30] it was 64 µg/mL (≈ 44.2 µM); in the data set on Staphylococcus aureus [13] it was 64 µg/mL (≈ 44.2 µM); against Staphylococcus aureus [22], above 64 µg/mL; against Staphylococcus aureus [31], 64 µg/mL (≈ 44.2 µM). Moreover, the MIC with Staphylococcus aureus [32] was 64 µg/mL (≈ 44.2 µM); in the data set with Staphylococcus aureus [33] it was above 512 µg/mL.
